Results published in patent publication US6624182B1, “Hydroxyphenylvinylthiazoles” (Ciba Specialty Chemicals Corporation, priority 1999, dated 2003).

Experiments:
Assay in all cases: Determination of the minimum inhibitory concentration (MIC value) in microtitre plates
C. albicans = assay type: cell-based, Candida albicans ATCC 10231; conditions: optical density at 620 nm, 48 hours at 37° C., MIC = ≦20% growth; tested at 100; 10 and 1 ppm (approximate values); (2), (3), (4) at 120; 60; 30; 15; 7.5; 3.75 ppm
Procedure: (§1) Determination of the Minimum Inhibitory Concentration (MIC Value) in Microtitre Plates Nutrient Medium Casein/soybean flour/peptone bouillon for the preparation of preliminary cultures of the test bacteria and yeast. Mycological slant agar for the preliminary culture of moulds Examples of Test Microbes: Yeast: Candida albicans ATCC 10231 Procedure: The test substances are pre-dissolved in dimethyl sulfoxide (DMSO) and tested in a series of dilutions of 1:2. Bacteria and yeast are cultured overnight in CASO bouillon; the mould is cultured on myco-logical slant agar and sponged off with 10 ml of 0.85% sodium chloride solution (+0.1% Triton X-100). All the test microbes are adjusted to a germ count of 1−5×10^6 KBE/ml using 0.85% sodium chloride solution. The test substances are pre-pipetted into microtitre plates in an amount of 8 μl per well. Pre-diluted microbe suspensions are diluted 1:100 in CASO bouillon (bacteria and yeast) or Sabouraud 2% glucose bouillon (mould) and added to the test substances in an amount of 192 μl per well. The test batches are incubated for 48 hours at 37° C. (bacteria and yeast) or for 5 days at 28° C. (mould). After incubation, the growth is determined by means of the clouding of the test batches (optical density) at 620 nm in a microplate reader. The concentration of substance at which (compared with the growth control) a marked inhibition of growth (≦20% growth) of the test microbes can be observed is given as the minimum inhibitory concentration (MIC value). One microtitre plate is used per test microbe and substance concentration. All substances are tested in duplicate.

E. coli = assay type: cell-based, Escherichia coli NCTC 8196; conditions: optical density at 620 nm, 48 hours at 37° C., MIC = ≦20% growth; tested at 100; 10 and 1 ppm (approximate values); (2), (3), (4) at 120; 60; 30; 15; 7.5; 3.75 ppm
Procedure: as §1, with “Bacteria: Escherichia coli NCTC 8196” for “Yeast: Candida albicans ATCC 10231”

S. aureus = assay type: cell-based; conditions: optical density at 620 nm, 48 hours at 37° C., MIC = ≦20% growth; tested at 100; 10 and 1 ppm (approximate values); (2), (3), (4) at 120; 60; 30; 15; 7.5; 3.75 ppm
Excerpt: as §1, with “Bacteria: Staphylococcus hominis DMS 20328” for “Yeast: Candida albicans ATCC 10231”

P. aeruginosa = assay type: cell-based, Pseudomonas aeruginosa CIP A-22; conditions: optical density at 620 nm, 48 hours at 37° C., MIC = ≦20% growth; tested at 100; 10 and 1 ppm (approximate values); (2), (3), (4) at 120; 60; 30; 15; 7.5; 3.75 ppm
Procedure: as §1, with “Bacteria: Pseudomonas aeruginosa CIP A-22” for “Yeast: Candida albicans ATCC 10231”

A. niger = assay type: cell-based, Aspergillus niger ATCC 6275; conditions: optical density at 620 nm, 5 days at 28° C., MIC = ≦20% growth; tested at 100; 10 and 1 ppm (approximate values); (2), (3), (4) at 120; 60; 30; 15; 7.5; 3.75 ppm
Procedure: as §1, with “Mould: Aspergillus niger” for “Yeast: Candida albicans”, “6275” for “10231”

MIC values in ppm C. albicans (C. albicans) [ppm] | MIC values in ppm E. coli (E. coli) [ppm] | MIC values in ppm S. aureus (S. aureus) [ppm] | MIC values in ppm P. aeruginosa (P. aeruginosa) [ppm] | MIC values in ppm A. niger (A. niger) [ppm] | Compound
>100 | >100 | >100 | >100 | >100 | Cc1cccc(/C=C/c2nc(-c3ccc(F)cc3)cs2)c1O [Compound of formula (13)]
>100 | >100 | >100 | >100 | >100 | COc1cc(O)ccc1/C=C/c1nc(-c2ccc(F)cc2)cs1 [Compound of formula (15)]
>100 | >100 | >100 | >100 | >100 | COc1ccc(/C=C/c2nc(-c3ccc(N4CCCC4)cc3)cs2)c(O)c1 [Compound of formula (32)]
>100 | >100 | >100 | >100 | >100 | COc1ccc(/C=C/c2nc(-c3ccccc3)cs2)cc1O [Compound of formula (52)]
>100 | >100 | >100 | >100 | >100 | COc1cc(/C=C/c2nc(-c3ccccc3)cs2)ccc1O [Compound of formula (54)]
>100 | >100 | >100 | >100 | >100 | CCOc1cc(/C=C/c2nc(-c3ccc(N4CCCC4)cc3)cs2)ccc1O [Compound of formula (30)]
>100 | >100 | >100 | >100 | >100 | Oc1ccccc1/C=C/c1nc(-c2ccc(N3CCCC3)cc2)cs1 [Compound of formula (33)]

Second part, the molecule before the results:

Compound | MIC values in ppm C. albicans (C. albicans) [ppm] | MIC values in ppm E. coli (E. coli) [ppm] | MIC values in ppm S. aureus (S. aureus) [ppm] | MIC values in ppm P. aeruginosa (P. aeruginosa) [ppm] | MIC values in ppm A. niger (A. niger) [ppm]
CC(C)(C)c1csc(/C=C/c2ccc(O)cc2)n1 [Compound of formula (16)] | >100 | >100 | >100 | >100 | >100
CCc1csc(/C=C/c2cc(O)c(OC)c(OC)c2)n1 [Compound of formula (46)] | >100 | >100 | >100 | >100 | >100
CCc1csc(/C=C/c2ccc(O)cc2)n1 [Compound of formula (39)] | >100 | >100 | >100 | >100 | >100
Cc1cc(/C=C/c2nc(C(C)(C)C)cs2)cc(C)c1O [Compound of formula (23)] | >100 | >100 | >100 | >100 | >100
CCc1csc(/C=C/c2ccc(O)cc2OC)n1 [Compound of formula (50)] | >100 | >100 | >100 | >100 | >100
CCc1csc(/C=C/c2ccc(OCc3ccccc3)cc2O)n1 [Compound of formula (49)] | >100 | >100 | >100 | >100 | >100
CCc1csc(/C=C/c2cccc(C)c2O)n1 [Compound of formula (48)] | >100 | >100 | >100 | >100 | >100
COc1cc(/C=C/c2nc(C(C)(C)C)cs2)ccc1O [Compound of formula (20)] | >100 | >100 | >100 | >100 | >100
